Results reported in patent publication US8268635B2, “Methods of identifying agents that selectively activate p38 and/or NKkB signaling” (priority 2006, dated 2012).
Entries after “also recorded” stand apart in the source; their conditions may differ. Where no end group is shown, it is not given here.

Key:
[1] = test system: JNK; assay: JNK activity in HUVEC (GST-jun solid phase assay); type: cell-based, human; conditions: 15 min; TNF 100 and 1000 U/ml, TNF70-80 1-50 μM
Description: (§1) The level of myelin basic protein phosphorylation was quantitated by an Instant Imager.
(§2) KHS (hereon referred to as “GCKR”) activity was assayed as described previously using myelin basic protein as a substrate (Shi, C. S., Leonardi, A., Kyriakis, J., Siebenlist, U., and Kerhl, J. H. (1999) J. Immunol. 163: 3279-3285). ASK-1 activation was determined in immunoprecipitates of ASK-1 by autophosphorylation (Kyriakis, J. M., and Auruch, J. (2001) Physiol. Rev. 81: 807-869). p38 and ERK activities were determined as described using myelin basic protein as a substrate (Hii, C. S., Huang, Z. H., Bilney, A., Costabile, M., Murray, A. W., Rathjen, D. A., Der, C. J., and Ferrante, A. (1998) J. Biol. Chem. 273: 19277-19282). […] A solid phase assay using glutathione-S-transferase (GST)-conjugated-jun (1-79) was employed to assay JNK activity (Hii, C. S., Huang, Z. H., Bilney, A., Costabile, M., Murray, A. W., Rathjen, D. A., Der, C. J., and Ferrante, A. (1998) J. Biol. Chem. 273: 19277-19282). Phosphorylated ASK-1, myelin basic protein and GST-jun (1-79) were fractionated on 8, 16 and 12% SDS polyacrylamide gels, respectively, and the bands were detected and radioactivity determined using an Instant Imager (Packard Instruments, Canberra, Australia).

[2] = test system: ERK1/ERK2; assay: ERK1/ERK2 dual phosphorylation in HUVEC (western blot); type: cell-based, human; conditions: 15 min; TNF 100 U/ml, TNF70-80 10 μM
Description: as §1
Western blot analysis was conducted as described previously (Hii, C. S., Huang, Z. H., Bilney, A., Costabile, M., Murray, A. W., Rathjen, D. A., Der, C. J., and Ferrante, A. (1998) J. Biol. Chem. 273: 19277-19282). Briefly, equal amounts of denatured protein from each lysate were separated by 12% SDS polyacrylamide gel electrophoresis (PAGE). The proteins were electrophoretically transferred to nitrocellulose membranes (Schleicher and Schuell, Keene, N. H., USA)(3 h at 40V). […] Immune complexes were visualised by enhanced chemiluminescence (Hii, C. S., Huang, Z. H., Bilney, A., Costabile, M., Murray, A. W., Rathjen, D. A., Der, C. J., and Ferrante, A. (1998) J. Biol. Chem. 273: 19277-19282).

[3] = test system: p38; assay: p38 activity in HUVEC (immunoprecipitation, myelin basic protein substrate); type: cell-based, human; conditions: 5 min; TNF 1,000 U/ml, peptides 10 μM
Description: as §1, §2

[4] = test system: JNK; assay: JNK activation in neutrophils in suspension; type: cell-based, human; conditions: 15 min; TNF 100 U/ml, TNF70-80 10 μM, anisomycin 2.5 μg/ml
Description: (§3) The cells were lysed and the lysate assessed by western blot analysis for the level of dual-phosphorylated ERK1/ERK2 (top panel) and ERK2 protein (bottom panel). […] The level of myelin basic protein phosphorylation was quantitated by an Instant Imager.
Neutrophils were prepared from peripheral blood of healthy donors by a rapid single-step technique (Kumaratilake, L. M., Rathjen, D. A., Mack, P., Widmer, F., Prasertsiriroj, V., and Ferrante, A. (1995) J. Clin. Invest. 95: 2315-2323) using Hypaque-Ficoll and according to the institution's guidelines on human ethics. […]
(§4) KHS (hereon referred to as “GCKR”) activity was assayed as described previously using myelin basic protein as a substrate (Shi, C. S., Leonardi, A., Kyriakis, J., Siebenlist, U., and Kerhl, J. H. (1999) J. Immunol. 163: 3279-3285). ASK-1 activation was determined in immunoprecipitates of ASK-1 by autophosphorylation (Kyriakis, J. M., and Auruch, J. (2001) Physiol. Rev. 81: 807-869). p38 and ERK activities were determined as described using myelin basic protein as a substrate (Hii, C. S., Huang, Z. H., Bilney, A., Costabile, M., Murray, A. W., Rathjen, D. A., Der, C. J., and Ferrante, A. (1998) J. Biol. Chem. 273: 19277-19282). […]

[5] = test system: p38; assay: p38 kinase activity in human neutrophils; type: cell-based; conditions: 5 min; TNF 100 or 1000 U/ml, TNF70-80 10-50 μM
Description: as §3
(§5) Neutrophils were prepared from peripheral blood of healthy donors by a rapid single-step technique (Kumaratilake, L. M., Rathjen, D. A., Mack, P., Widmer, F., Prasertsiriroj, V., and Ferrante, A. (1995) J. Clin. Invest. 95: 2315-2323) using Hypaque-Ficoll and according to the institution's guidelines on human ethics. […] These were either used as cells in suspension or as adhered neutrophils by adding the cells to plasma coated plates as previously described (Powell, W., Gravel, S., Halwani, F., Hii, C. S., Huang, Z. H., Tan, A. M., and Ferrante, A. (1997) J. Immunol. 159: 2952-2959).
as §2, §1

[6] = test system: JNK; assay: JNK activity in adherent neutrophils; type: cell-based, human; conditions: neutrophils pre-adhered to plasma-coated dishes; 15 min; TNF 1000 U/ml, TNF70-80 10 μM
Description: as §5, §4

[7] = test system: p38; assay: p38 activation in 70Z/3 cells transfected with hTNFR1 constructs; type: cell-based, mouse
Description: The cells were then lysed, protein contents quantified and subjected to p38 kinase assay by Western blot. The results are presented as the mean+−sem of 3 experiments.
The cells were maintained in RPMI-1640 medium with 4.5 g/L glucose, 2 mM L-glutamine, […] 2-mercaptoethanol and 10% FCS in an atmosphere of 95% air and 5% CO2. Cells were plated onto 10 cm plates at 4×10^7 cells in 15 ml culture medium. Before performing transient transfection, plasmid DNA (hTNFR1), kindly provided by Dr M. Kronke, Institute of Medical Microbiology and Hygiene, Medical Center University of Cologne, Koln, Germany (Adam, D., Wiegmann, K., Adam-Klages, S., Ruff A., and Kronke, M. (1996) J. Biol. Chem. 271: 14617-22), (20 μg in 1 ml of RPMI1640) was mixed with LipofectAMINE 2000 (Invitrogen) (60 μl in 1 ml of RPMI) and the mixture were left at room temperature for 20 min. The mixture was directly added to the cells and incubated for 24 h. The cells were washed twice with HBSS before use.

[8] = test system: ASK-1; assay: ASK-1 autophosphorylation in HEK293T cells; type: cell-based, human; conditions: 3 or 7 min
Description: (§6) GCKR was immunoprecipitated from cell lysates and activity assayed using myelin basic protein (MBP) as the substrate. […] Activation of ASK-1 was determined by kinase autophosphorylation.
as §2

[9] = test system: ASK-1; assay: ASK-1 autophosphorylation in neutrophils; type: cell-based, human
Description: as §6, §2

[10] = test system: macrophage; conditions: previous comparisons; cited from earlier work

PSTHVLITHTI-OH [TNF70-80]
activity of JNK in HUVEC [1]: failed to stimulate the activity of JNK | dual phosphorylation of the ERKs in HUVEC [2]: caused only negligible phosphorylation of the ERKs | activity of p38 in HUVEC [3]: stimulated the activity of p38 | activity/phosphorylation of JNK in neutrophils in suspension [4]: neither TNF nor TNF70-80 stimulated the activity of either JNK or ERK | activity of p38 in neutrophils in suspension [5]: enhanced the activity of p38 | activity of JNK in adherent neutrophils [6]: but not TNF70-80 stimulated the activity of JNK | p38 activity in 70Z cells transfected with an empty vector [7]: did not stimulate the activity of p38 | p38 activity in 70Z cells, TNF receptor with C1-C3 deleted [7]: still able to stimulate p38 activity | p38 activity in 70Z cells, TNF receptor with C1-C4 deleted [7]: retained its ability to stimulate p38 activity | p38 activity in 70Z cells, TNF receptor with C1 domain deleted [7]: able to stimulate the activity of p38 | p38 activation in 70Z/3 cells transfected with wild type hTNFR1 ([7]; 5 min, TNF 1000 U/ml, peptides 10 μM): caused the activation of p38; also recorded: stimulated the activity of p38 in cells transfected with wild type receptors | p38 activation in non-transfected 70Z/3 cells ([7]; cells lacking TNFR, 5 min, TNF 1000 U/ml, peptides 10 μM): neither TNF nor TNF70-80 activated p38 | ASK-1 autophosphorylation in HEK293T cells [8]: did not affect the level of ASK-1 phosphorylation | ASK-1 phosphorylation in non-adherent neutrophils ([9]; data not shown): not altered | ASK-1 phosphorylation in adherent neutrophils ([9]; plasma-coated dishes, 3 or 7 min): neither TNF nor TNF70-80 increased the level of ASK-1 phosphorylation | concentration that equates to 1000 U/ml of TNF in ability to stimulate nitric oxide production in macrophage [10]: 5.0 µg/mL
